Experimental data as given in ChEMBL document CHEMBL1135599, “Synthesis and evaluation of potent and selective beta(3) adrenergic receptor agonists containing acylsulfonamide, sulfonylsulfonamide, and sulfonylurea carboxylic acid isosteres” (J Med Chem, 2002).

Experiments:
[1] = plasma concentration at the 2.5 hour time; significant; format: ADME
[2] = Half life (t1/2) value in dogs after an intravenous dose of 0.2 mg/Kg; format: ADME, organism-based, Canis lupus familiaris; details: dog, in vivo
[3] = molecular target: T1, Beta-1 adrenergic receptor (Homo sapiens, UniProt P08588); test: (§1) concentration-response expressed as a percent of the maximal response to R-(-) isoproterenol (ISO); format: functional
Target sequence in this assay (P08588 whole entry, looked up): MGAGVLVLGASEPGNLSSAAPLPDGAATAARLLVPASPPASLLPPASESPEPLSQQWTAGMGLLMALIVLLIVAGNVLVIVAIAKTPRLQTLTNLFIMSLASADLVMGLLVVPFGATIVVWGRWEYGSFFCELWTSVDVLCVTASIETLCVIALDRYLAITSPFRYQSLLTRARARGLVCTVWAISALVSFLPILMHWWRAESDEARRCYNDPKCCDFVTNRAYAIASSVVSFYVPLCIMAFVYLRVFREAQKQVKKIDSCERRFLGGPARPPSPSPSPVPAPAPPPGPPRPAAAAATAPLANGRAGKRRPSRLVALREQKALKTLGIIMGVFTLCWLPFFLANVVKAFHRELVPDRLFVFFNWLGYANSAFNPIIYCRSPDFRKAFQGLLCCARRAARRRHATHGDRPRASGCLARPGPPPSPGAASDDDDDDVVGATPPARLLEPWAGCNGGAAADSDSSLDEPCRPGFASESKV

[4] = molecular target: T2, Beta-3 adrenergic receptor (Homo sapiens, UniProt P13945); test: as §1; format: functional
Target sequence in this assay (P13945 whole entry, looked up): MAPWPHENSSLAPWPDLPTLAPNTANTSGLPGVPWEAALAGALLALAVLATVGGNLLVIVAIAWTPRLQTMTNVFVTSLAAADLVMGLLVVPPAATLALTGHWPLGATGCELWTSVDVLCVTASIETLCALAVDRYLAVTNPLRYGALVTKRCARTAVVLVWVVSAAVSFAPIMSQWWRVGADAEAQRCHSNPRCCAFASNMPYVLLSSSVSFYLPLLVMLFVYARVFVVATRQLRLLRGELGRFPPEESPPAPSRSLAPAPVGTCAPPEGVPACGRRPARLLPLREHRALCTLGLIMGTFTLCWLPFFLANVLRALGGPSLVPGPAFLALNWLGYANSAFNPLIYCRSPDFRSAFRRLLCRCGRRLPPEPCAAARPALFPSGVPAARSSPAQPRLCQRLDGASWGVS

[5] = molecular target: T2, Beta-3 adrenergic receptor; test: Activity against human beta 3 adrenergic receptor (AR), expressed in CHO cells.; format: functional, cell-based
Target sequence in this assay (P13945 whole entry): as the sequence (P13945 whole entry, looked up) above

[6] = molecular target: T3, Beta-2 adrenergic receptor (Homo sapiens, UniProt P07550); test: concentration-response expressed as a percent of the maximal response to R-(-) isoprenaline (ISO); format: functional
Target sequence in this assay (P07550 whole entry, looked up): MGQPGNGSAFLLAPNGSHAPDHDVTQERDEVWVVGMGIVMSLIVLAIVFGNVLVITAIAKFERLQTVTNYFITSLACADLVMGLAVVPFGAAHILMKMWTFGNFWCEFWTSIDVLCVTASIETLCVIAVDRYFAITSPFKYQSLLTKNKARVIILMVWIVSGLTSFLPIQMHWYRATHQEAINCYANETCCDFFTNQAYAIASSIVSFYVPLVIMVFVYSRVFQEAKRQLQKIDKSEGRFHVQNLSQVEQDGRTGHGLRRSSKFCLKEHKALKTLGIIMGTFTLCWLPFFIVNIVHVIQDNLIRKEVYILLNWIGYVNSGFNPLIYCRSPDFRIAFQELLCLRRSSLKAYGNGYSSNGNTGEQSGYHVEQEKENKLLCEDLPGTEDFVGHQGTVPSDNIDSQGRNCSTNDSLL

[7] = molecular target: T3, Beta-2 adrenergic receptor; test: Activity against human beta 2 adrenergic receptor (AR), expressed in CHO cells; format: functional, cell-based
Target sequence in this assay (P07550 whole entry): as the sequence (P07550 whole entry, looked up) above

[8] = Selectivity ratio (Beta-1EC50/ Beta-3EC50); format: functional
[9] = Selectivity ratio (Beta-2EC50/ Beta-3EC50); format: functional
[10] = molecular target: T1, Beta-1 adrenergic receptor; test: (§2) concentration-response expressed as a percent of the maximal response to R-(-) isoproterenol (ISO).Emax is the fitted maximal value of the concentration; format: functional
Target sequence in this assay (P08588 whole entry, looked up): as the sequence (P08588 whole entry, looked up) above

[11] = molecular target: T3, Beta-2 adrenergic receptor; test: as §2; format: functional
Target sequence in this assay (P07550 whole entry, looked up): as the sequence (P07550 whole entry, looked up) above

[12] = molecular target: T2, Beta-3 adrenergic receptor; test: as §2; format: functional
Target sequence in this assay (P13945 whole entry, looked up): as the sequence (P13945 whole entry, looked up) above

[13] = molecular target: T1, Beta-1 adrenergic receptor; test: Ability to cause cAMP accumulation in CHO cells expressing human beta-1 AR expressed as the negative logarithm of the molar drug concentration; format: functional, cell-based
Target sequence in this assay (P08588 whole entry): as the sequence (P08588 whole entry, looked up) above

[14] = molecular target: T3, Beta-2 adrenergic receptor; test: Ability to cause cAMP accumulation in CHO cells expressing human beta-2 AR expressed as the negative logarithm of the molar drug concentration; format: functional, cell-based
Target sequence in this assay (P07550 whole entry): as the sequence (P07550 whole entry, looked up) above

[15] = molecular target: T2, Beta-3 adrenergic receptor
Target sequence in this assay (P13945 whole entry): as the sequence (P13945 whole entry, looked up) above

[16] = plasma concentration at the 2.5 hour time; format: ADME; details: read-out: C
[17] = Area under curve (AUC) value in dogs after an intravenous dose of 0.2 mg/Kg in 0.025 M aqueous methanesulfonic acid solution with 5% mannitol; format: ADME; details: dog, in vivo
[18] = Volume distribution in dogs after an intravenous dose of 0.2 mg/Kg; format: ADME, organism-based; details: dog, in vivo
Canis familiaris = test: Plasma clearance in dogs after an intravenous dose of 0.2 mg/Kg; format: ADME, organism-based, Canis lupus familiaris; details: dog, in vivo
[19] = molecular target: T1, Beta-1 adrenergic receptor; test: Receptor binding assay(Beta-1 adrenergic receptor) carried out with membranes prepared from human recombinant Sf9 cells expressing the cloned human receptor in the presence of [125I]iodocyanopindolol; format: cell membranes
Target sequence in this assay (P08588 whole entry): as the sequence (P08588 whole entry, looked up) above

[20] = molecular target: T3, Beta-2 adrenergic receptor; test: Receptor binding assay(Beta-2 adrenergic receptor) carried out with membranes prepared from human recombinant Sf9 cells expressing the cloned human receptor in the presence of [125I]iodocyanopindolol; format: cell membranes
Target sequence in this assay (P07550 whole entry): as the sequence (P07550 whole entry, looked up) above

[21] = molecular target: T1, Beta-1 adrenergic receptor; test: Concentration that causes 50% inhibition of human beta 1 adrenergic receptor (AR), expressed in CHO cells.; format: functional, cell-based
Target sequence in this assay (P08588 whole entry): as the sequence (P08588 whole entry, looked up) above

[22] = molecular target: T3, Beta-2 adrenergic receptor; test: Concentration that causes 50% inhibition of human beta 2 adrenergic receptor (AR), expressed in CHO cells.; format: functional, cell-based
Target sequence in this assay (P07550 whole entry): as the sequence (P07550 whole entry, looked up) above

[23] = molecular target: T2, Beta-3 adrenergic receptor; test: Ability to cause cAMP accumulation in CHO cells expressing human beta-3 AR expressed as the negative logarithm of the molar drug concentration; format: functional, cell-based
Target sequence in this assay (P13945 whole entry): as the sequence (P13945 whole entry, looked up) above

[24] = Area under curve (AUC) value in dogs after an intravenous dose of 0.2 mg/Kg in 0.025 M aqueous methanesulfonic acid solution with 5% mannitol at a concentration of 0.2; format: ADME, organism-based, Canis lupus familiaris; details: dog, in vivo
[25] = molecular target: T3, Beta-2 adrenergic receptor; test: concentration-response expressed as a percent of the maximal response to R-(-) isoprenaline (ISO).Emax is the fitted maximal value of the concentration; format: functional
Target sequence in this assay (P07550 whole entry, looked up): as the sequence (P07550 whole entry, looked up) above

| Emax [10] | Emax [11] | Emax [12] | EC50 [13] | EC50 [14] | EC50 [15] | SMILES | Ratio [8] | Ratio [9] | other results |
| --- | --- | --- | --- | --- | --- | --- | --- | --- | --- |
|  |  |  |  |  |  | C[C@H](CNc1cccc(CCS(=O)(=O)NS(=O)(=O)c2ccccc2)c1)NC[C@H](O)c1cccc(Cl)c1 | > 500 | 630 | C [1]: Not Active; half-life [2]: < 1 h; Emax [3]: 21%; Emax [4]: 113%; EC50 [5]: 1.58 nM; Emax [6]: 31%; EC50 [7]: 1000 nM |
| 30% | 78% | 96% | 100 nM | 20 nM | 5.01 nM | C[C@H](CNc1ccc(CC(=O)NS(C)(=O)=O)cc1)NC[C@H](O)c1cccc(Cl)c1 | 20 | 4 |  |
| 14% | 31% | 101% | 3.16 nM | 7.94 nM | 1.26 nM | C[C@H](CNc1ccc(CC(=O)Nc2nccs2)cc1)NC[C@H](O)c1cccc(Cl)c1 | 2.5 | 6.3 |  |
| 8% | 16% | 98% |  |  | 6.31 nM | Cc1ccc(S(=O)(=O)NC(=O)Cc2cccc(NC[C@@H](C)NC[C@H](O)c3cccc(Cl)c3)c2)cc1 | > 794 | > 158 | concentration at 2.5 h [16]: 10.3 ng/mL; AUC [17]: 279 ng·h/mL; half-life [2]: 1.7 h; Vd [18]: 0.409 L/kg; Clp (Canis familiaris): 11.9 mL/min/kg; IC50 [19]: 5010 nM; IC50 [20]: 15800 nM; EC50 [21]: > 5010 nM; EC50 [22]: > 1000 nM |
| 11% | 66% | 102% | 5.01 nM | 5.01 nM | 20 nM | C[C@H](CNc1ccc(CNS(C)(=O)=O)cc1)NC[C@H](O)c1cccc(Cl)c1 | 0.4 | 0.4 |  |
| 22% | 59% | 110% | 794 nM | 31.6 nM | 0.794 nM | C[C@H](CNc1ccc(CC(=O)NS(=O)(=O)c2ccccc2)cc1)NC[C@H](O)c1cccc(Cl)c1 | 1000 | 40 |  |
| 17% | 70% | 79% | 631 nM | 3160 nM | 794 nM | C[C@H](CNc1ccc(C(=O)O)cc1)NC[C@H](O)c1cccc(Cl)c1 | 0.8 | 4 |  |
| 27% | 100% | 105% | 5.01 nM | 10 nM | 20 nM | C[C@H](CNc1ccccc1)NC[C@H](O)c1cccc(Cl)c1 | 0.3 | 0.5 |  |
| 22% | 28% | 98% | 20 nM | 10 nM |  | Cc1ccc(S(=O)(=O)NCCc2ccc(NC[C@@H](C)NC[C@H](O)c3cccc(Cl)c3)cc2)cc1 | 1 | 0.5 | EC50 [23]: 20 nM |
| 23% | 34% | 98% | 631 nM | 79.4 nM | 1.26 nM | Cc1ccc(S(=O)(=O)NC(=O)Cc2ccc(NC[C@@H](C)NC[C@H](O)c3cccc(Cl)c3)cc2)cc1 | 501 | 63 | AUC [24]: 715 ng·h/mL; concentration at 2.5 h [16]: 42.1 ng/mL; half-life [2]: 1 h; Vd [18]: 0.2 L/kg; Clp (Canis familiaris): 4.7 mL/min/kg; IC50 [19]: 2000 nM; IC50 [20]: 5010 nM |
| 12% | 40% | 126% | 25.1 nM | 1 nM |  | Cc1ccc(CNC(=O)Cc2ccc(NC[C@@H](C)NC[C@H](O)c3cccc(Cl)c3)cc2)cc1 | 0.4 | 0.02 | EC50 [23]: 63.1 nM |
| 27% | 52% | 100% |  |  |  | C[C@H](CNc1ccc(CCS(=O)(=O)NC(=O)c2ccccc2)cc1)NC[C@H](O)c1cccc(Cl)c1 | 79 | 32 | AUC [17]: 383 ng·h/mL; half-life [2]: 1.2 h; Vd [18]: 0.478 L/kg; Clp (Canis familiaris): 8.7 mL/min/kg; EC50 [21]: 794 nM; EC50 [22]: 316 nM; EC50 [23]: 10 nM |
| 15% | 75% | 123% | 7.94 nM | 3.16 nM | 12.6 nM | CC(=O)NCc1ccc(NC[C@@H](C)NC[C@H](O)c2cccc(Cl)c2)cc1 | 0.6 | 0.3 |  |
|  |  |  | 79.4 nM | 50.1 nM | 15.8 nM | C[C@H](CNc1ccc(CC(=O)O)cc1)NC[C@H](O)c1cccc(Cl)c1 | 5 | 3.1 | IC50 [19]: 1000 nM; IC50 [20]: 794 nM; Emax [25]: 90% |
| 10% | 22% | 104% | 251 nM | 398 nM | 25.1 nM | C[C@H](CNc1ccc(CCC(=O)O)cc1)NC[C@H](O)c1cccc(Cl)c1 | 10 | 16 |  |
| 6% |  | 117% | > 10000 nM | 50.1 nM | 316 nM | C[C@H](CNc1cccc(CC(=O)O)c1)NC[C@H](O)c1cccc(Cl)c1 |  | 0.2 | Emax [25]: 80% |
| 15% | 23% | 105% |  |  |  | C[C@H](CNc1cccc(CNC(=O)NS(=O)(=O)c2ccccc2)c1)NC[C@H](O)c1cccc(Cl)c1 | 25 | 16 | half-life [2]: < 1 h; EC50 [21]: 398 nM; EC50 [22]: 251 nM; EC50 [23]: 15.8 nM |

| SMILES | Emax [10] | Emax [11] | Emax [12] | EC50 [13] | EC50 [14] | EC50 [15] | Ratio [8] | Ratio [9] | other results |
| --- | --- | --- | --- | --- | --- | --- | --- | --- | --- |
| C[C@H](Cc1ccc(OCC(=O)O)cc1)NC[C@H](O)c1cccc(Cl)c1 | 28% |  |  |  |  |  |  |  | Emax [25]: 80% |
